Test results from ChEMBL document CHEMBL3352400, “4-Functionalized 1,3-diarylpyrazoles bearing 6-aminosulfonylbenzothiazole moiety as potent inhibitors of carbonic anhydrase isoforms hCA I, II, IX and XII” (Bioorg Med Chem, 2014).

Key:
Carbonic anhydrase 9 = Carbonic anhydrase 9 (Homo sapiens, UniProt Q16790); experiment: Inhibition of human carbonic anhydrase 9 by stopped flow CO2 hydrase assay method
Carbonic anhydrase 12 = Carbonic anhydrase 12 (Homo sapiens, UniProt O43570); experiment: Inhibition of human carbonic anhydrase 12 by stopped flow CO2 hydrase assay method
Carbonic anhydrase 12, sequence (O43570 whole entry): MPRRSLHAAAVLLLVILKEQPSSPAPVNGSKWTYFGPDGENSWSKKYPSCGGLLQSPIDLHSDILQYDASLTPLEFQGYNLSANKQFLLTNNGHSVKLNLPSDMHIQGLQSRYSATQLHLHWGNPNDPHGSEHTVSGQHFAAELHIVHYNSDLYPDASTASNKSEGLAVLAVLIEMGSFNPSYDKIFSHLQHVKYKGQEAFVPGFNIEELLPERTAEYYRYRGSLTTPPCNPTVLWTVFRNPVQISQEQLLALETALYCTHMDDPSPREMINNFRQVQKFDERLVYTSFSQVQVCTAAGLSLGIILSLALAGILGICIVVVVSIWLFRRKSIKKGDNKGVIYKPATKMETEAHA

Carbonic anhydrase 1 = Carbonic anhydrase 1 (Homo sapiens, UniProt P00915); experiment: Inhibition of human carbonic anhydrase 1 by stopped flow CO2 hydrase assay method
Carbonic anhydrase 1, sequence (P00915 whole entry): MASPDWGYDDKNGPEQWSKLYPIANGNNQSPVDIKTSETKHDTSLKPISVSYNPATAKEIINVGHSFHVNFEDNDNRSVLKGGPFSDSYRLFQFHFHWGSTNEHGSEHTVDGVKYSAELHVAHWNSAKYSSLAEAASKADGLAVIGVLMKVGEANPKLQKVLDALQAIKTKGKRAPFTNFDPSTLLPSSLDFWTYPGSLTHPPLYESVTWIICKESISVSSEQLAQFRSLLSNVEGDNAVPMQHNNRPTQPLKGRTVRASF

Structure (SMILES)	Ki (Carbonic anhydrase 9) [µM]	Ki (Carbonic anhydrase 12) [µM]	Ki (Carbonic anhydrase 1) [µM]
NS(=O)(=O)c1ccc2nc(-n3cc(/C=N/O)c(-c4ccccc4)n3)sc2c1	0.114		
Cc1ccc(-c2nn(-c3nc4ccc(S(N)(=O)=O)cc4s3)cc2C(=O)O)cc1	0.109		
NS(=O)(=O)c1ccc2nc(-n3cc(C=O)c(-c4ccc(F)cc4)n3)sc2c1		> 10	
NS(=O)(=O)c1ccc2nc(-n3cc(C=O)c(-c4ccc(Cl)cc4)n3)sc2c1	1.69		
N#Cc1cn(-c2nc3ccc(S(N)(=O)=O)cc3s2)nc1-c1ccc([N+](=O)[O-])cc1	0.854		> 50
N#Cc1cn(-c2nc3ccc(S(N)(=O)=O)cc3s2)nc1-c1ccccc1	0.0816		
NS(=O)(=O)c1ccc2nc(-n3cc(/C=N/O)c(-c4ccc(Cl)cc4)n3)sc2c1	0.152		
COc1ccc(-c2nn(-c3nc4ccc(S(N)(=O)=O)cc4s3)cc2C#N)cc1	0.111		> 50
Cc1ccc(-c2nn(-c3nc4ccc(S(N)(=O)=O)cc4s3)cc2/C=N/O)cc1	0.134		
Cc1ccc(-c2nn(-c3nc4ccc(S(N)(=O)=O)cc4s3)cc2C=O)cc1	0.699		
COc1ccc(-c2nn(-c3nc4ccc(S(N)(=O)=O)cc4s3)cc2C=O)cc1	0.229		
NS(=O)(=O)c1ccc2nc(-n3cc(C(=O)O)c(-c4ccc([N+](=O)[O-])cc4)n3)sc2c1	0.0604		
COc1ccc(-c2nn(-c3nc4ccc(S(N)(=O)=O)cc4s3)cc2/C=N/O)cc1	0.0916		> 50
NS(=O)(=O)c1ccc2nc(-n3cc(C=O)c(-c4ccccc4)n3)sc2c1	1.75		
NS(=O)(=O)c1ccc2nc(-n3cc(C(=O)O)c(-c4ccc(Cl)cc4)n3)sc2c1	0.0028		
NS(=O)(=O)c1ccc2nc(-n3cc(C(=O)O)c(-c4ccc(F)cc4)n3)sc2c1	0.0624		
NS(=O)(=O)c1ccc2nc(-n3cc(C=O)c(-c4ccc([N+](=O)[O-])cc4)n3)sc2c1	2.11		
COc1ccc(-c2nn(-c3nc4ccc(S(N)(=O)=O)cc4s3)cc2C(=O)O)cc1	0.842		
NS(=O)(=O)c1ccc2nc(-n3cc(/C=N/O)c(-c4ccc(F)cc4)n3)sc2c1	0.224		
Cc1ccc(-c2nn(-c3nc4ccc(S(N)(=O)=O)cc4s3)cc2C#N)cc1	0.186		> 50
N#Cc1cn(-c2nc3ccc(S(N)(=O)=O)cc3s2)nc1-c1ccc(F)cc1	0.739		
N#Cc1cn(-c2nc3ccc(S(N)(=O)=O)cc3s2)nc1-c1ccc(Cl)cc1	0.224		> 50
NS(=O)(=O)c1ccc2nc(-n3cc(C(=O)O)c(-c4ccccc4)n3)sc2c1	0.752		
